Reference: publication PMC9851200, “Multiparameter phenotypic screening for endogenous TFEB and TFE3 translocation identifies novel chemical series modulating lysosome function” (Autophagy, 2022)
Like-named read-outs stand apart in the source and are kept apart here.

Experiments:
Type in all cases: binding
[1] = tested on: kinases (KINOMEscan panel); conditions: NEW KINOMEscan; for KINOMEscan EGFR(L747-E749del, A750P): kinase EGFR(L747-E749del, A750P); for KINOMEscan EGFR(L747-T751del,Sins): kinase EGFR(L747-T751del,Sins); for KINOMEscan FLT3(ITD): kinase FLT3(ITD)
[2] = target: T1, kinases (KINOMEscan panel) (Homo sapiens, UniProt O14730); conditions: RIOK3; NEW KINOMEscan
T1 sequence (O14730 1-519): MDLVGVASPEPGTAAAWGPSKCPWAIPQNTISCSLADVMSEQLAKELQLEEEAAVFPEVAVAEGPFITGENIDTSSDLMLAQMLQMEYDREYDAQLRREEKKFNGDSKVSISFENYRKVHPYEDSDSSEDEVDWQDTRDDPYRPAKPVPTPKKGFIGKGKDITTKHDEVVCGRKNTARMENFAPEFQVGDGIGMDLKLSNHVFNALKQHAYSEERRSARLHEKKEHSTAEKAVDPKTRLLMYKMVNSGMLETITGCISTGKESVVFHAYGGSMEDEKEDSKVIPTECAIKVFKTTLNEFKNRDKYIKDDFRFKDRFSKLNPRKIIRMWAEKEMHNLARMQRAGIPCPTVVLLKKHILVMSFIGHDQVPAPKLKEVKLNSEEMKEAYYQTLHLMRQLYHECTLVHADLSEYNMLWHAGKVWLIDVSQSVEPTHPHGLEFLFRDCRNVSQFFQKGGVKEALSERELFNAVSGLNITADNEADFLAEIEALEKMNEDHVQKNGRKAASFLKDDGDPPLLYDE

[3] = target: T2, kinases (KINOMEscan panel) (Homo sapiens, UniProt Q96PN8); conditions: kinase TSSK3; NEW KINOMEscan
T2 sequence (Q96PN8 1-268): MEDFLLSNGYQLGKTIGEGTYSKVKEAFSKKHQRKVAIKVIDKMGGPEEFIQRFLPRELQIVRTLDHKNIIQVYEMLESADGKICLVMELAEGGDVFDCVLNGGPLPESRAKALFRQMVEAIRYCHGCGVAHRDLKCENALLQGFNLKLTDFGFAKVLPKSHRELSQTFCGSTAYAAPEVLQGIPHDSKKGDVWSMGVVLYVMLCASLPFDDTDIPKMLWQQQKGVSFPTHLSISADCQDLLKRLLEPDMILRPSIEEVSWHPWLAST

[4] = target: T3, kinases (KINOMEscan panel) (Homo sapiens, UniProt Q13546); conditions: kinase RIPK1; NEW KINOMEscan
T3 sequence (Q13546 1-671): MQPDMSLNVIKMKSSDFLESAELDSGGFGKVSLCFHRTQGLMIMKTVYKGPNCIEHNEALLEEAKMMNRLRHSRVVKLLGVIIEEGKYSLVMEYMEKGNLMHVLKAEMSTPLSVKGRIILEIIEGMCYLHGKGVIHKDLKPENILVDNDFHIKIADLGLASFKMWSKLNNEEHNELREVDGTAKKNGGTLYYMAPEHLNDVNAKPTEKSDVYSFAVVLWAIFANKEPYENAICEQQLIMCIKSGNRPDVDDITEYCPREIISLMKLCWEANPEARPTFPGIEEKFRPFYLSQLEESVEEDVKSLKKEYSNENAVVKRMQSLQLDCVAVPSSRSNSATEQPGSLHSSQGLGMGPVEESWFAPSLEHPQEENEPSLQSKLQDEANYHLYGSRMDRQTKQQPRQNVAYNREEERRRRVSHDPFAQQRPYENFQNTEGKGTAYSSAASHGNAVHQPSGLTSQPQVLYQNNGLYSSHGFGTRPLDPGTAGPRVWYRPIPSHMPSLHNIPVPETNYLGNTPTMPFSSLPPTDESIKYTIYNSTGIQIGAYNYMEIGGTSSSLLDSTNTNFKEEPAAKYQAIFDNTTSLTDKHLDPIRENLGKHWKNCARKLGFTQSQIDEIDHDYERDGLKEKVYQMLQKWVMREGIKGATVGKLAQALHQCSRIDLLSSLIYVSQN

[5] = target: kinases (KINOMEscan panel) (Homo sapiens, UniProt P50750); conditions: kinase CDK9; NEW KINOMEscan
Sequence of kinases (KINOMEscan panel) (Homo sapiens, UniProt P50750) (P50750 whole entry): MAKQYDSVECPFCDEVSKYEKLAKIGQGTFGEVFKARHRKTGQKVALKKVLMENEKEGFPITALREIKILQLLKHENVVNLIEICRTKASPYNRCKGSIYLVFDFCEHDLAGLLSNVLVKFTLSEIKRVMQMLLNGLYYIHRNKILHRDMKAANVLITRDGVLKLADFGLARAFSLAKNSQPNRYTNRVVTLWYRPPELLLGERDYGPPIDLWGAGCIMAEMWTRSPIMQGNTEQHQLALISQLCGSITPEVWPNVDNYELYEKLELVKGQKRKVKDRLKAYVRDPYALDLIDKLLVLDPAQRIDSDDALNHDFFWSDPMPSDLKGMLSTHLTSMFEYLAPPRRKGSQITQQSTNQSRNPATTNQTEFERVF

[6] = target: kinases (KINOMEscan panel) (Homo sapiens, UniProt P80192); conditions: NEW KINOMEscan
Sequence of kinases (KINOMEscan panel) (Homo sapiens, UniProt P80192) (P80192 whole entry): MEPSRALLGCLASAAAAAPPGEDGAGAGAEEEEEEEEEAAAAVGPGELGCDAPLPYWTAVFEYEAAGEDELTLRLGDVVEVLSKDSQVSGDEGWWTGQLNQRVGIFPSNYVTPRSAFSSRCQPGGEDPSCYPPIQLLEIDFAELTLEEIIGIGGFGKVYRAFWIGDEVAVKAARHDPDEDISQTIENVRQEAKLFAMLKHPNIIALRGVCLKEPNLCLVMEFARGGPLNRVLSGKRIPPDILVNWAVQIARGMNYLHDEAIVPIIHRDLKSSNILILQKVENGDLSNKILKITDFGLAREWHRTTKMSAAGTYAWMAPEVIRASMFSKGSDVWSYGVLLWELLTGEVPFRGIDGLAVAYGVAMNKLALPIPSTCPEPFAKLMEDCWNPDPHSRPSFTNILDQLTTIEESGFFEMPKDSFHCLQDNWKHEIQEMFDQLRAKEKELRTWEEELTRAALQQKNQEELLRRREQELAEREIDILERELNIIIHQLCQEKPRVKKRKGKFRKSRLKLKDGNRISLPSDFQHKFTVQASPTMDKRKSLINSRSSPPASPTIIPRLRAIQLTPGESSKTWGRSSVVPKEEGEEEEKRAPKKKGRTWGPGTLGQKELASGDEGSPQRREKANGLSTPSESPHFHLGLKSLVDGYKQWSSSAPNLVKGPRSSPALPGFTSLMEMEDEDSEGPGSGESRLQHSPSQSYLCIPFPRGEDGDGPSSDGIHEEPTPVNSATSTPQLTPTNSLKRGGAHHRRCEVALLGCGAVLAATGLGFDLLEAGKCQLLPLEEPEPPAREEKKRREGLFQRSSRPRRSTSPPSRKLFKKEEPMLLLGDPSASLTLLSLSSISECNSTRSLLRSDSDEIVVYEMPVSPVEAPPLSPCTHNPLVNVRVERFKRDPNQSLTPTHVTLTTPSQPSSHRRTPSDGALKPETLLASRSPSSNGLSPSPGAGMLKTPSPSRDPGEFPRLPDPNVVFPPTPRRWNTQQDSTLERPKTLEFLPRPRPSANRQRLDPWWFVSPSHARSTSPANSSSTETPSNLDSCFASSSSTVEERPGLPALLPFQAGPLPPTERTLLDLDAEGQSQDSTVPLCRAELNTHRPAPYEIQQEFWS

[7] = target: T4, kinases (KINOMEscan panel) (Homo sapiens, UniProt Q96L34); conditions: kinase MARK4; NEW KINOMEscan
T4 sequence (Q96L34 1-752): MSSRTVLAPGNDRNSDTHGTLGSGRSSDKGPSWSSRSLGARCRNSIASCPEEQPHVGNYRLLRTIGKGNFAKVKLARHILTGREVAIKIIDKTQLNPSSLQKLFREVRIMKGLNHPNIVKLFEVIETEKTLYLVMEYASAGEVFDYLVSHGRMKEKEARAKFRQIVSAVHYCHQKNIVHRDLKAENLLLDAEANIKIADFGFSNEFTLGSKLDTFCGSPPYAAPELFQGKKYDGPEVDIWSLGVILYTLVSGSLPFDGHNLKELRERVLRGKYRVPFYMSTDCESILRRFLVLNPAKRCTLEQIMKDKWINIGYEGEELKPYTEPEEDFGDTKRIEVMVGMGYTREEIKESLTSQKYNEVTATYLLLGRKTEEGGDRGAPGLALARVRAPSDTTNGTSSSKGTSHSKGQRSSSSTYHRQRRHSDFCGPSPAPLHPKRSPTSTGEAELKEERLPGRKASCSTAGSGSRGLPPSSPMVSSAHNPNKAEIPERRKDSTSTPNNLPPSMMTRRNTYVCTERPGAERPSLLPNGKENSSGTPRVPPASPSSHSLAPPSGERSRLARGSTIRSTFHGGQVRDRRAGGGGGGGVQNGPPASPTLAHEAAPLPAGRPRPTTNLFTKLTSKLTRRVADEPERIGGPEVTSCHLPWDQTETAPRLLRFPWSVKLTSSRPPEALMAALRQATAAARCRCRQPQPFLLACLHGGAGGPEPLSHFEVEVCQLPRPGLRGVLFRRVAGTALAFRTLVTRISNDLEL

Row | SMILES | KINOMEscan EGFR(L747-S752del, P753S) [1] | KINOMEscan FLT3(ITD,D835V) [1] | KINOMEscan FLT3(ITD,F691L) [1] | KINOMEscan PRKAA2 [1] | KINOMEscan EGFR(L747-E749del, A750P) [1] | KINOMEscan EGFR(L747-T751del,Sins) [1] | KINOMEscan FLT3(ITD) [1] | KINOMEscan PRKAA2 ([1]; kinase PRKAA2) | KINOMEscan RIOK3 [2] | KINOMEscan TSSK3 [3] | KINOMEscan RIPK1 [4] | KINOMEscan CDK9 [5] | KINOMEscan MAP3K9 [6] | KINOMEscan MARK4 [7]
1 | Cc1cccc(-c2nc(Nc3ccc4nn(C)cc4c3)c3ccccc3n2)n1 [NK167] | 0 | 7 | 33 | 11 | 0 | 0 | 0 | 0 | 0 | 0 | 2 | 8 | 11 | 34
2 | Cc1cccc(-c2nc(N(C)c3ccc4ncsc4c3)c3ccccc3n2)n1 [NK-161] | 19 | 25 | 25 | 20 | 0 | 0 | 4 | 0 | 0 | 6 | 0 | 4 | 27 | 16
